The target in one data set is CYP3A4 (Homo sapiens, UniProt P08684). Kind of data set: in vitro. Further details: cytochrome P450 isoform inhibition. As for the experimental part: (§1) Independent of the effect of any antiparasitic potential of compounds, they were evaluated using a panel of early-toxicity assays comprising cytotoxicity (A549, human lung adenocarcinoma epithelial cell line and WI-38, human lung fibroblasts), mitochondrial toxicity (786-O, human renal carcinoma cell line), hERG inhibition,[31] cytochrome P450 inhibition (CYP1A2, CYP2C9, CYP2C19, CYP2D6, and CYP3A4),[31] and Aurora B kinase inhibition. […] For the two compounds active against TbPTR1 (4m and 4o), IC50 against hERG, cytochrome P450, and mitochondrial toxicity were determined (reported in Supporting Information). We observed that the dose of compounds 4m, 4o, 4c, and 3k was 4 μM in the potentiation assays. […] In the case of hERG, CYP2D6, CYP2A9, CYP2C19, and mitochondrial toxicity, there is a selectivity index of around 3–4 fold, thus showing an acceptable profile.

The target of the next data set is CYP2D6 (Homo sapiens, UniProt P10635). Kind of data set: in vitro. Also on record: cytochrome P450 isoform inhibition. As to the method:
as §1

In the next data set the target is CYP2C9 (Homo sapiens, UniProt P11712). Kind of data set: in vitro. Further details: cytochrome P450 isoform inhibition. As to the method:
as §1

Another data set has as its target T1, CYP1A2 (Homo sapiens, UniProt P05177).
T1 sequence (P05177 1-516): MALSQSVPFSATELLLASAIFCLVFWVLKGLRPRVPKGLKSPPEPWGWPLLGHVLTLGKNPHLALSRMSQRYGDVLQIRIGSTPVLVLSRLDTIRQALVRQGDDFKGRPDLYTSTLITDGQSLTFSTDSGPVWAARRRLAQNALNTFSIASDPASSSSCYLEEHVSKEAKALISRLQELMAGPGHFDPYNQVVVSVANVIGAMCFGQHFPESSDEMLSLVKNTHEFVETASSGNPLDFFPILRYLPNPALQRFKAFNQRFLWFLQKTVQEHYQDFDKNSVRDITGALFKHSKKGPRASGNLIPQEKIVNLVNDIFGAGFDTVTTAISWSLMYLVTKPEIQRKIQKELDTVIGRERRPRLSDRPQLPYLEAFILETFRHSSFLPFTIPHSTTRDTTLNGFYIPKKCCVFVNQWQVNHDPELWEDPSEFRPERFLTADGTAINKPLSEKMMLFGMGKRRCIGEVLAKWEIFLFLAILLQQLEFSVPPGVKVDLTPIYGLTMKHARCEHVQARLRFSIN
Kind of data set: in vitro. Further details: cytochrome P450 isoform inhibition. As to the method:
as §1

A further data set deals with CYP2C19 (Homo sapiens, UniProt P33261). Kind of data set: in vitro. Also on record: cytochrome P450 isoform inhibition. As for the experimental part:
as §1

The target of another data set is T2, hERG (Homo sapiens, UniProt Q12809).
T2 construct: gene KCNH2
Also on record: hERG channel inhibition. As to the method: as §1

The target in a further data set is T3, hDHFR (Homo sapiens, UniProt P00374).
T3 construct: gene DHFR
T3 sequence (P00374 1-187): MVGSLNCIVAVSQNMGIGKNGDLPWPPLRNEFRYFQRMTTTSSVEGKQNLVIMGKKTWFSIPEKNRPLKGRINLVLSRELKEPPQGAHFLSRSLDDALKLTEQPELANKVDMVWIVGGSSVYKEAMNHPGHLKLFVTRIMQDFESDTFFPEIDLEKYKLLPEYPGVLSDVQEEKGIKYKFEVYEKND
Briefly: biochemical. Also on record: human DHFR enzyme inhibition. The essentials:
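hDHFR inhibition tested at a single concentration of 100 μM, expressed as percent inhibitory activity.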

Another data set concerns the target T4, TbPTR1 (Trypanosoma brucei brucei, UniProt O76290).
T4 construct: made in house
T4 sequence (O76290 1-268): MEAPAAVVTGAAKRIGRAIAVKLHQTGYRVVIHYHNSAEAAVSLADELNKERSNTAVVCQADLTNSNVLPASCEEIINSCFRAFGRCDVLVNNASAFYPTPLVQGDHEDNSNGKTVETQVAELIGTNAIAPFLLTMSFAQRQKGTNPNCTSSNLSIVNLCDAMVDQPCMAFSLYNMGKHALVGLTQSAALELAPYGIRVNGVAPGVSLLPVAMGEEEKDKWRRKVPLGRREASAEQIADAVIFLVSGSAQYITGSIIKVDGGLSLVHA
Briefly: biochemical. The conditions noted are these: for inhibition at 50 µM: 50 μM compound, read-out: % Inhibition TbPTR1 at 50 μM; for IC50: dose-response 0.001-100 μM.

A further data set has as its target T5, TbDHFR (Trypanosoma brucei brucei, UniProt Q27783).
T5 construct: made in house
Briefly: TbDHFR enzyme inhibition (spectrophotometric). It is filed as biochemical. As to conditions: 100 μM; Table S3.

Chain of CYP3A4 (P08684 whole entry, canonical isoform): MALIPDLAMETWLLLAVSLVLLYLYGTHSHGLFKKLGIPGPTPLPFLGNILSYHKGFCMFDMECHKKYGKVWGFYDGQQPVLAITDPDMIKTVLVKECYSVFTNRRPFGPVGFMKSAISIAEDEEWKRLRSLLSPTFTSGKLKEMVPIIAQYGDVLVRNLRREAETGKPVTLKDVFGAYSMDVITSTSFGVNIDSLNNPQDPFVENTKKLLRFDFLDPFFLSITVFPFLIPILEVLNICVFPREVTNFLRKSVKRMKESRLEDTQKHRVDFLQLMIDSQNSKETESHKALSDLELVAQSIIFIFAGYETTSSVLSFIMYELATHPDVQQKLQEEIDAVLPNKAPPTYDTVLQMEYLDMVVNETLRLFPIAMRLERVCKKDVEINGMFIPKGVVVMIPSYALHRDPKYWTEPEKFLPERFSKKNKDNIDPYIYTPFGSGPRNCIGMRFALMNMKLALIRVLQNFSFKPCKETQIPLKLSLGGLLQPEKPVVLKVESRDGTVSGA
Chain of CYP2D6 (P10635 whole entry, canonical isoform): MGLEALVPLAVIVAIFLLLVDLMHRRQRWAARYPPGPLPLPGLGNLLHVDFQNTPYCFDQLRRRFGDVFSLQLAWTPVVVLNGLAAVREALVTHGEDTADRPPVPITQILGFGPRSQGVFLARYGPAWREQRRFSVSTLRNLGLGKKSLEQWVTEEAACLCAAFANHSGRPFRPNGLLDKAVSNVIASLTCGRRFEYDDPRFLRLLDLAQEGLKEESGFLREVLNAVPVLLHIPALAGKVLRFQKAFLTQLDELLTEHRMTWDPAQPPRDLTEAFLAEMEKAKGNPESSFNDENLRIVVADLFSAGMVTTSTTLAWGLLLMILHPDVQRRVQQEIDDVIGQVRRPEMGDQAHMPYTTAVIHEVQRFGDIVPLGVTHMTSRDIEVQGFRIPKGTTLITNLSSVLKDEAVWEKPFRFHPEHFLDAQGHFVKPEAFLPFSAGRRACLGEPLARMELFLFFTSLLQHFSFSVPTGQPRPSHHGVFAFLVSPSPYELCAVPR
Chain of CYP2C9 (P11712 whole entry, canonical isoform): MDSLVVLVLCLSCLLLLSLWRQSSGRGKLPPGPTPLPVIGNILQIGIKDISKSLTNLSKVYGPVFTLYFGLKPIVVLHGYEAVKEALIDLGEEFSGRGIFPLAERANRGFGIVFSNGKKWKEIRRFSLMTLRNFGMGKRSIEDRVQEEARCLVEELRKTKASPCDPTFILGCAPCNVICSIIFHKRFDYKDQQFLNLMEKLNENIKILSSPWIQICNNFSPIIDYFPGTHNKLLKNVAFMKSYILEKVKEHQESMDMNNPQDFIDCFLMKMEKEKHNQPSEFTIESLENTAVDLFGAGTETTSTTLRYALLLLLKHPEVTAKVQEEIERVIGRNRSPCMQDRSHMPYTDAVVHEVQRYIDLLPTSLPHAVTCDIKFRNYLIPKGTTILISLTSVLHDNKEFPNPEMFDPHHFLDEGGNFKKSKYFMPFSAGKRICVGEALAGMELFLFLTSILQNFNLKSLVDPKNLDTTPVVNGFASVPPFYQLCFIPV
Chain of CYP2C19 (P33261 whole entry, canonical isoform): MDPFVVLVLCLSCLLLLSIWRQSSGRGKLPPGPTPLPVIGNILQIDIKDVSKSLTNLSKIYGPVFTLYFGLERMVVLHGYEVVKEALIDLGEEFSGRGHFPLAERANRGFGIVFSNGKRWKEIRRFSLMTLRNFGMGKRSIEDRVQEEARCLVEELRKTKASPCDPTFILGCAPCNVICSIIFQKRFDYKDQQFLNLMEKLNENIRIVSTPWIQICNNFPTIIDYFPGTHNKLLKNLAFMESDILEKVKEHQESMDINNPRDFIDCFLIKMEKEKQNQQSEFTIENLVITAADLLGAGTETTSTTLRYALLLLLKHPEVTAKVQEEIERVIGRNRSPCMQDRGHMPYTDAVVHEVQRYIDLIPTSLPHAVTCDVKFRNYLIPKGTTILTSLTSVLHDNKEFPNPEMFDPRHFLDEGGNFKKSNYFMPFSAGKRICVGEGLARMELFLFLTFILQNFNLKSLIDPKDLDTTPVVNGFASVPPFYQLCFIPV
T5 sequence (Q27783 whole entry): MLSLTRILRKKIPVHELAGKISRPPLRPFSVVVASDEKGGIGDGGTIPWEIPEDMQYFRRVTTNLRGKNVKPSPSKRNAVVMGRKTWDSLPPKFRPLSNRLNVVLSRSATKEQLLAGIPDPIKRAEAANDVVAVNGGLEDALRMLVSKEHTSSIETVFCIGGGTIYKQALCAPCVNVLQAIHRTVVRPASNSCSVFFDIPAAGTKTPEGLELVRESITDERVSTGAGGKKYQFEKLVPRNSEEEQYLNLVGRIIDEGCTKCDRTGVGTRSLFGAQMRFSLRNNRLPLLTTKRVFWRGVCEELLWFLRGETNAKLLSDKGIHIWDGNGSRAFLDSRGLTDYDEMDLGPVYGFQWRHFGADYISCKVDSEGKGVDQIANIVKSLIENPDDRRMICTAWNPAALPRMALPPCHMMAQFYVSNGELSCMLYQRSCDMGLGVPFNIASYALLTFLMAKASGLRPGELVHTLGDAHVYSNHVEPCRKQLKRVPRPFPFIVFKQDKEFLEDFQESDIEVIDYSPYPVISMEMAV
T2 sequence (Q12809 whole entry): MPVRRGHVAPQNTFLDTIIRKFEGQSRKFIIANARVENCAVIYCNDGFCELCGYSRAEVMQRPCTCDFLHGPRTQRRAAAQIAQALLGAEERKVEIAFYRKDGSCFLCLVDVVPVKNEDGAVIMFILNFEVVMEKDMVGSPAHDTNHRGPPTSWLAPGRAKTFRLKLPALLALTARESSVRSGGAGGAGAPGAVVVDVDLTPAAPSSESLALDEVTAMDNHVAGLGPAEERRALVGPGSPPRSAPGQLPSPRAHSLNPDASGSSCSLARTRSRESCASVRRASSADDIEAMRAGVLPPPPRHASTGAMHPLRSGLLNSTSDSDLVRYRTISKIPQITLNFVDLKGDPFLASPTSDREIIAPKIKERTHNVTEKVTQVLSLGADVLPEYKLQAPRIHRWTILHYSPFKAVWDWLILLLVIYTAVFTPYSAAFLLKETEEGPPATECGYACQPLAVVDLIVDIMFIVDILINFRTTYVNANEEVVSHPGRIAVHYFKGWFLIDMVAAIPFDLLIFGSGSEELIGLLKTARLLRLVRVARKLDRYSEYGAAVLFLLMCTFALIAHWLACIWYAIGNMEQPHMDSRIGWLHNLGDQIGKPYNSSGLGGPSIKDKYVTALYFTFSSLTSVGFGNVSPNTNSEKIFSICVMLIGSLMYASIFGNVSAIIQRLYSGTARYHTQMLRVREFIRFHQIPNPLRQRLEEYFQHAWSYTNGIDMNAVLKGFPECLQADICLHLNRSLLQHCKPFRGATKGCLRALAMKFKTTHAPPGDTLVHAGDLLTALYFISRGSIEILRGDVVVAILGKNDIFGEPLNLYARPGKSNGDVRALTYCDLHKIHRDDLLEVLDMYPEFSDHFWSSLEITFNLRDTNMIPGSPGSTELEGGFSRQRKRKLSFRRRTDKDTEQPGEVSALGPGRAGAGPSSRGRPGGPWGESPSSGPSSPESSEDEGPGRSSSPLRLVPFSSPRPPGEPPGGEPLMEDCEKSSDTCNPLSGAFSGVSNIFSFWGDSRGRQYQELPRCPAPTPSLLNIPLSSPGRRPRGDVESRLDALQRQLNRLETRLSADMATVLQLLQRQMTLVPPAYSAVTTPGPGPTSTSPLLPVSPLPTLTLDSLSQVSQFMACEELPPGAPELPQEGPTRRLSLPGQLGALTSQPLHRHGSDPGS

With `Nc1nnc(NCc2ccc(-c3ccccc3)cc2)s1` [4m], the inhibition at 10 µM on CYP3A4 was 25.6 ± 6.3%; at CYP2D6, 53.6 ± 0.6%; on CYP2C9, 46.9 ± 4.4%; on CYP1A2, 60.4 ± 4.5%; at CYP2C19, 22.5 ± 4.7%; on hERG, 52.6 ± 11.6%. Moreover, the inhibition at 100 µM against hDHFR was determined as 40%. Also, the inhibition at 50 µM on TbPTR1 turned out to be 73 ± 1.1%. Also, inhibition against TbPTR1 was half-maximal at 16 µM (IC50). Moreover, the “inhibitory activity against TbDHFR” value against TbDHFR was “neither 4m nor 4o is able to inhibit”.
As for `Nc1nnc(NCCc2cccs2)s1` [4o, N2G(2G(thiophenG2Gyl)ethyl)G1,3,4GthiadiazoleG2,5Gdiamine], the inhibition at 10 µM on CYP3A4 is 30.4 ± 4.5%; on CYP2D6 it was 81.2 ± 1.2%; on CYP2C9, 3.1 ± 4.8%; on CYP1A2, -2.9 ± 3.4%; on CYP2C19, -20.9 ± 6.1%; at hERG, 95.4 ± 8%. In addition, the inhibition at 100 µM at hDHFR is 24%. Further, the inhibition at 50 µM on TbPTR1 was determined as 79.8 ± 0.4%. This molecule had an IC50 against TbPTR1 of 25 µM. At TbDHFR, the “inhibitory activity against TbDHFR” value was “neither 4m nor 4o is able to inhibit”.

The record behind these values is publication PMC5623949, “Exploiting the 2-Amino-1,3,4-thiadiazole Scaffold To Inhibit Trypanosoma brucei Pteridine Reductase in Support of Early-Stage Drug Discovery” (ACS Omega, 2017).
